In assay [1] the test system is H1299 (lung). The assay can be described thus: In vitro cytotoxic activity (MTT) assay, H1299. In kind it is cell-based. To be noted: Homo sapiens, NCI-H1299; H1299 (lung) cells, exposed for 96 hours; read-out: IC50, concentration of compound eliciting a 50% inhibition of cell proliferation. The method, then: (§1) Compounds 1-12 were screened for their in vitro cytotoxic activity utilizing a 3-(4,5-dimethyl-thiazol-2-yl)-2,5-diphenyltetrazolium bromide (MTT) assay against selected cancer human cell lines consisting of PC3 (prostate), HCT116 (colon), A375 (melanoma), H1299 (lung), MIAPaCa-2 (pancreas), HL60 (leukemia), MCF7 (breast), MDA-MB-231 (breast) (T. Mosmann, J. Immunol. Meth., 1983, 65, 55-63). The cells were cultured at 37° C. in RMPI1640 medium supplemented with 10% fetal bovine serum, 50 IU/mL penicillin, and 50 μg/mL streptomycin in a 5% CO2 incubator. All cells were sub-cultured 3 times/week by trypsinisation. Viable cells were seeded and allowed to adhere for 12 h before a test drug was added in 96-well plates at an initial density of 1.0×10^5 cells/mL. Tumour cell lines were separately exposed to various concentrations of the tested compounds followed by incubation at a temperature of 37° C. during 96 h inside a medium of fresh RMPI 1640. Cells were subsequently incubated at 37° C. using MTT at 0.5 mg/mL during 4 h. After removal of supernatant, formazan crystals were dissolved in isopropanol and the optical density was measured at 570 nm. CX-4945 was used as a positive control.

The subject of assay [2] is HCT116 (colon). The assay can be described thus: In vitro cytotoxic activity (MTT) assay, HCT116. The class given is cell-based. The conditions noted are these: Homo sapiens, HCT-116; HCT116 (colon) cells, exposed for 96 hours; read-out: IC50, concentration of compound eliciting a 50% inhibition of cell proliferation. As for the experimental part:
as §1

Assay [3] has as its system HL60 (leukemia). The assay can be described thus: In vitro cytotoxic activity (MTT) assay, HL60. The class given is cell-based. To be noted: Homo sapiens, HL-60; HL60 (leukemia) cells, exposed for 96 hours; read-out: IC50, concentration of compound eliciting a 50% inhibition of cell proliferation. As for the experimental part:
as §1

Assay [4] concerns MDA-MB-231 (breast). Nature of the assay: In vitro cytotoxic activity (MTT) assay, MDA-MB-231. The class given is cell-based. The conditions noted are these: Homo sapiens; MDA-MB-231 (breast) cells, exposed for 96 hours; read-out: IC50, concentration of compound eliciting a 50% inhibition of cell proliferation. As for the experimental part:
as §1

Assay [5] concerns PC3 (prostate). Nature of the assay: In vitro cytotoxic activity (MTT) assay, PC3. The class given is cell-based. To be noted: Homo sapiens, Prostate cell; PC3 (prostate) cells, exposed for 96 hours; read-out: IC50, concentration of compound eliciting a 50% inhibition of cell proliferation. The method, then: as §1
For assay [6], the target named is T1, recombinant human CK2 (RRββ-holoenzyme) (Homo sapiens, UniProt P68400).
T1 construct: purchased Millipore
Nature of the assay: CK2 Kinase Assay (radiometric, [γ-33P] ATP). The class given is biochemical. To be noted: final ATP concentration 15 μM, 10 min at 30° C.; read-out: protein kinase CK2 IC50. As for the experimental part: CK2 Kinase Assay was conducted using the protocol as described in Pierre F. et al; J. Med. Chem. 2011, 54, 635-654. The tested compounds in aqueous solution were added at a volume of 10 μL to a reaction mixture comprising 10 μL of assay dilution buffer (ADB; 20 mM MOPS, pH 7.2, 25 mM β-glycerol phosphate, 5 mM EGTA, 1 mM sodium orthovanadate, and 1 mM dithiothreitol), 10 μL of substrate peptide (RRRDDDSDDD, dissolved in ADB at a concentration of 1 mM), 10 μL of recombinant human CK2 (RRββ-holoenzyme, 25 ng dissolved in ADB; Millipore). Reactions were initiated by the addition of 10 μL of ATP solution (90% 75 mMMgCl2, 75 μM ATP (final ATP concentration: 15 μM) dissolved in ADB; 10% [γ-33P] ATP (stock 1 mCi/100 μL; 3000 Ci/mmol (Perkin-Elmer) and maintained for 10 min at 30° C. The reactions were quenched with 100 μL of 0.75% phosphoric acid and then transferred to and filtered through a phosphor cellulose filter plate (Millipore). After washing each well five times with 0.75% phosphoric acid, the plate was dried under vacuum for 5 min and, following the addition of 15 μL of scintillation fluid to each well, the residual radioactivity was measured using a Wallac […] counter. The IC50 values were derived from eight concentrations of test inhibitors.

The subject of assay [7] is A375 (melanoma). The assay can be described thus: In vitro cytotoxic activity (MTT) assay, A375. In kind it is cell-based. The conditions noted are these: Homo sapiens, A-375; A375 (melanoma) cells, exposed for 96 hours; read-out: IC50, concentration of compound eliciting a 50% inhibition of cell proliferation. The method, then: as §1
Assay [8] concerns MIAPaCa-2 (pancreas). The assay can be described thus: In vitro cytotoxic activity (MTT) assay, MIAPaCa-2. In kind it is cell-based. The conditions noted are these: Homo sapiens, MIA PaCa-2; MIAPaCa-2 (pancreas) cells, exposed for 96 hours; read-out: IC50, concentration of compound eliciting a 50% inhibition of cell proliferation. As for the experimental part:
as §1

Assay [9] has as its system MCF7 (breast). The assay can be described thus: In vitro cytotoxic activity (MTT) assay, MCF7. The conditions noted are these: Homo sapiens; MCF7 (breast) cells, exposed for 96 hours; read-out: IC50, concentration of compound eliciting a 50% inhibition of cell proliferation. In kind it is cell-based. The method, then: as §1

Molecules are shown by their SMILES.

T1 sequence (P68400 whole entry): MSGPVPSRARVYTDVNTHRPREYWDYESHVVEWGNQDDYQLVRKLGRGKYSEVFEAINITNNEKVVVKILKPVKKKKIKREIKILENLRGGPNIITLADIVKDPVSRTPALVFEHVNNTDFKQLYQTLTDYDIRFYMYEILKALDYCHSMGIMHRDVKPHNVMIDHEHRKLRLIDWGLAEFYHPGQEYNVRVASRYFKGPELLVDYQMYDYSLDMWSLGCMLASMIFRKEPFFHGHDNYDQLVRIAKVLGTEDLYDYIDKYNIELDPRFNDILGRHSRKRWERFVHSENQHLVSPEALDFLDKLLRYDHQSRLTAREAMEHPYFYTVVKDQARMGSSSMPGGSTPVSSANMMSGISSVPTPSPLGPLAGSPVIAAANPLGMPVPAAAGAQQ
T1 sequence (P67870 whole entry partner): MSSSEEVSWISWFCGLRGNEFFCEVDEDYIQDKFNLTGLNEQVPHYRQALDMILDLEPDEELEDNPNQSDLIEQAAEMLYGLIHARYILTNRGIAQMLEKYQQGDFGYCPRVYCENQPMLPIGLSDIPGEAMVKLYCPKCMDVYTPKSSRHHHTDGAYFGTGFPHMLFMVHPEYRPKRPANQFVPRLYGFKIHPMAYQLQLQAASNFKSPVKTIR

On to `Clc1cccc(Nc2c3cnccc3nc3c2[nH]c2ccncc23)c1` [Compound (1), N-(3-chlorophenyl)-10H-pyrido[3′,4′:4,5]pyrrolo[3,2-b][1,6]naphthyridin-11-amine], for which the IC50 in [1] was 3.2 µM; in assay [2], 1.1 µM; in [3], 2.4 µM; in [4] it was 5.4 µM; in [5] it was 1.7 µM; in [6], 0.064 µM. Moreover, the IC50 in [7] is 2.8 µM; in [8] it was 0.9 µM; in [9], 7.6 µM.

The values above are taken from patent US11932642B1, “Substituted pyrido[3′,4′:4,5]pyrrolo[3,2-b][1,6]naphthyridines as CK2 inhibitors” (KING FAISAL UNIVERSITY, priority 2023, dated 2024).
